Test results from paper PMC9103351, “Effects of the Bark Resin Extract of Garcinia nigrolineata on Chronic Stress-Induced Memory Deficit in Mice Model and the In Vitro Monoamine Oxidases and β-Amyloid Aggregation Inhibitory Activities of Its Prenylated Xanthone Constituents” (Molecules, 2022).

Tested on: UCMS mice
Assay: Morris Water Maze Test (MWMT) in UCMS mice
Format: in vivo, ICR mice
Experimental: Five-week-old male ICR mice (weight: 20-30 g), which were acquired from Nomura Siam International (Pathumwan, Bangkok, Thailand), were maintained at the Animal Unit of the Faculty of Pharmaceutical Sciences, Khon Kaen University. Mice were cared for in accordance with the Guiding Principles for the Care and Use of Animals (NIH Publications No. 80-23, revised in 2011). The facilities sustained a 12 h light/dark cycle, constant temperature (22 ± 2 °C), and humidity (45 ± 2%), with full access to food and drink. The current research was authorized by the Animal Ethics Committee for Use and Care of Khon Kaen University (IACUC-KKU-121/64) Mice in the stress groups received mild stressors for 6 weeks. […] In each trial, the latency to reach the platform (escape latency) and the distance covered were recorded for 5 days. […] After completion of the probe test, the time spent in the target quadrant (Q1) was counted as an index of reference memory.

vitamin E
time spent in the target quadrant (MWMT probe, day 6) (100 mg/kg/day oral): significantly increased | escape latency (MWMT training) (three weeks of treatment, days 3, 4 and 5): significantly reduced
